Data set [1] can be described thus: Assay (IV) determination of solubility. It counts as physicochemical. Here is the method: Assay (IV)—Determination of Solubility
The mimylin peptide was dissolved in water at ˜500 nmol/ml and mixed 1:1 with a series of buffers (100 mM glycylglycine pH 3.0, 100 mM glycylglycine pH 4.0, 100 mM glycylglycine pH 5.0, 100 mM bistrispropane pH 6.0, 100 mM bistrispropane pH 6.5, 100 mM bistrispropane pH 7.0, 100 mM bistrispropane pH 7.5, 100 mM bistrispropane pH 8.0).

A further data set deals with T1, rat calcitonin receptor (Rattus norvegicus, UniProt P32214).
T1 construct: expressed in transfected cells; host or cells: BHK tk'ts 13 (transient, FuGENE 6)
T1 sequence (P32214 25-479 isoform P32214-2 limits assumed): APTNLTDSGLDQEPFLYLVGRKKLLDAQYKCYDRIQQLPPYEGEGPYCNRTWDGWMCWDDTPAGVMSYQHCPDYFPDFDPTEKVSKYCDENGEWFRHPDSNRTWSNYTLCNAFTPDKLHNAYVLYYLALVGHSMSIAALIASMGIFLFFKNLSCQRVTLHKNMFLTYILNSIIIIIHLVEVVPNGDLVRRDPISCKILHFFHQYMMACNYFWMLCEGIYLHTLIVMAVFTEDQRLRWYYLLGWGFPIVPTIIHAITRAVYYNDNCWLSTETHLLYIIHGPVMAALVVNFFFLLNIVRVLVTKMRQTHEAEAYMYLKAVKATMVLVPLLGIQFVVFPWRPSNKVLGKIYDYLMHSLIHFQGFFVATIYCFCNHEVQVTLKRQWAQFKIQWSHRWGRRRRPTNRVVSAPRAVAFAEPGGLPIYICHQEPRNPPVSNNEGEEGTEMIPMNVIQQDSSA
In words: Assay (VIII) binding to the rat calcitonin receptor. To be noted: membranes; read-out: rCT-R binding IC50. A digest of the protocol: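 Affinity given as IC50 from a one-site competition fit of bound radioactivity, counted by scintillation after cold HBSS washes and NaOH/SDS lysis. Membranes came from BHK tk'ts 13 cells transiently expressing the rat receptor; other conditions followed the human calcitonin receptor protocol.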

In data set [2] the target is T2, human amylin receptor (Amylin 3(a)/CRE-luc cell membranes) (Homo sapiens, UniProt O60896+P30988).
T2 construct: host or cells: BHK570
T2 sequence (P30988 25-474): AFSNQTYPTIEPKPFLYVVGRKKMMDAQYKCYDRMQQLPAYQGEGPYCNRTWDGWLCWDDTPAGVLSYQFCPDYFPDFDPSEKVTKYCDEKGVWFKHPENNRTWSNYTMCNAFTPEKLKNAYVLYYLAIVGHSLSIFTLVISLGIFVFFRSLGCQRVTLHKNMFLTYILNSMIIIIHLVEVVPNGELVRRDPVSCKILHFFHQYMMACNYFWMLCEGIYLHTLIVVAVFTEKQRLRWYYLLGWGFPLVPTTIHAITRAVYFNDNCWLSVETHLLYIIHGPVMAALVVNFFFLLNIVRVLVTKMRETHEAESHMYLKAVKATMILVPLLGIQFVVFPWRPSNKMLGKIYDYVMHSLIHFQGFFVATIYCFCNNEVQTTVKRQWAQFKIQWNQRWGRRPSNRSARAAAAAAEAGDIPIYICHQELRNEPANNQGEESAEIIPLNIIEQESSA
T2 sequence (O60896 24-148 partner): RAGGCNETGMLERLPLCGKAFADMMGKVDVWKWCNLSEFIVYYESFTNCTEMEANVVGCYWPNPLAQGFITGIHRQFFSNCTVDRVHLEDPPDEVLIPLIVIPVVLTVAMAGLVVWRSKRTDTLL
Kind of data set: Assay (V) binding to the human amylin receptor (membrane, SPA). To be noted: 125I-rat amylin, read-out: hAmylin-R binding IC50. Here is the method: The binding assay was performed using scintillation proximity assay (SPA) beads (RPNQ0001) from PerkinElmer and cell membranes from the Amylin 3(a)/CRE-luc cells (as described in Assay (II)) were used. Membranes were prepared in the following way; the cells were rinsed with PBS and incubated with Versene for approximately 5 min before harvesting. The cells were flushed with PBS and the cell-suspension was centrifuged for 5 min at 1000 rpm. Cells were homogenized (ultrathurrax) in a buffer containing 20 mM Na-HEPES and 10 mM EDTA (pH 7.4) and centrifuged at 20.000 rpm for 15 min. The resulting pellet was resuspended, homogenized and centrifuged (20.000 rpm, 15 min) in a buffer containing 20 mM Na-HEPES and 0.1 mM EDTA (pH 7.4, buffer 2). The resulting pellet was resuspended in buffer 2 and protein concentration was tested (BCA protein Assay, Pierce). The homogenate was kept cold during the whole procedure. The membranes were kept at −80° C. until use. The assay was performed in a 384 well Optiplate (PerkinElmer) in a total volume of 40 ul. Membranes were mixed with SPA beads. Final concentration of membranes 35 ng/μL final and SPA beads was 0.05 mg/well. […] Samples were analyzed on TopCounter™ (Packard). The IC50 was calculated using (one site binding competition analysis) GraphPad Prism5 as a measure of receptor affinity.

Numbered stars: 1 amine (or outer) side, 2 acyl side, 3 side chain; on linkers, the order of the positions; unused ones are H or OH. Side chains are listed from the residue outwards. Peptide text beside a SMILES is read from it. * marks the point of attachment. C20 diacid = O=C(O)CCCCCCCCCCCCCCCCCCC(=O)*; C18 diacid = O=C(O)CCCCCCCCCCCCCCCCC(=O)*; γGlu = O=C(O)[C@H](CCC(=O)[*:2])N[*:1]

In the case of `CC(C)C[C@H](NC(=O)[C@H](CCC(=O)O)NC(=O)[C@H](C)NC(=O)[C@@H](NC(=O)[C@H](CC(C)C)NC(=O)[C@H](CCCNC(=N)N)NC(=O)CNC(=O)[C@H](CC(C)C)NC(=O)[C@@H](NC(=O)[C@H](C)NC(=O)[C@@H](NC(=O)[C@@H](NC(=O)[C@H](CC(C)C)NC(=O)[C@H](CCC(=O)O)NC(=O)[C@H](CO)NC(=O)[C@H](C)NC(=O)CC[C@H](NC(=O)CCCCCCCCCCCCCCCCC(=O)O)C(=O)O)[C@@H](C)O)[C@@H](C)O)C(C)C)[C@@H](C)O)C(=O)N[C@@H](Cc1c[nH]cn1)C(=O)N[C@@H](CCC(=O)O)C(=O)N[C@@H](CC(C)C)C(=O)N[C@@H](CCC(=O)O)C(=O)N[C@H](C(=O)N[C@@H](CC(C)C)C(=O)N1CCC[C@H]1C(=O)N[C@@H](CCCNC(=N)N)C(=O)N[C@H](C(=O)N[C@@H](CCC(=O)O)C(=O)N[C@H](C(=O)NCC(=O)N[C@H](C(=O)NCC(=O)N[C@H](C(=O)N1CCC[C@H]1C(N)=O)[C@@H](C)O)[C@@H](C)O)[C@@H](C)O)[C@@H](C)O)[C@@H](C)O` [compound 105, [N-terminal(C18 diacid-gGlu), des1, 6T, 9V, 14T, 21E, 30T, 31G, 32T]mimylin] ({C18 diacid-γGlu}-ASELTTAVLGRLTAELHELETLPRTETGTGTP-NH2), the solubility at 18 h in data set [1] (bistrispropane buffer, pH 6.5) was at least 200 µM; in data set [1] (bistrispropane buffer, pH 7.5) it was at least 200 µM; in data set [1] (bistrispropane buffer, pH 6.0) it was at least 200 µM; in data set [1] (bistrispropane buffer, pH 7.0), at least 200 µM; in data set [1] (bistrispropane buffer, pH 8.0), at least 200 µM; in data set [1] (glycylglycine buffer, pH 3.0), at least 200 µM. For the same molecule, the solubility at 18 h in data set [1] (glycylglycine buffer, pH 4.0) was at least 200 µM; in data set [1] (glycylglycine buffer, pH 5.0), at least 200 µM. In addition, the IC50 at rat calcitonin receptor was determined as 0.072 nM; in data set [2] it was 0.309 nM.

For the molecule `CC(=O)N[C@@H](C)C(=O)N[C@@H](CO)C(=O)N[C@@H](CCCCNC(=O)CC[C@H](NC(=O)CCCCCCCCCCCCCCCCCCC(=O)O)C(=O)O)C(=O)N[C@@H](CC(C)C)C(=O)N[C@@H](CO)C(=O)N[C@H](C(=O)N[C@@H](C)C(=O)N[C@@H](C)C(=O)N[C@@H](CC(C)C)C(=O)NCC(=O)N[C@@H](CCCNC(=N)N)C(=O)N[C@@H](CC(C)C)C(=O)N[C@@H](CO)C(=O)N[C@@H](C)C(=O)N[C@@H](CCC(=O)O)C(=O)N[C@@H](CC(C)C)C(=O)N[C@@H](Cc1c[nH]cn1)C(=O)N[C@@H](CCC(=O)O)C(=O)N[C@@H](CC(C)C)C(=O)N[C@@H](C)C(=O)N[C@H](C(=O)N[C@@H](CC(C)C)C(=O)N1CCC[C@H]1C(=O)N[C@@H](CCCNC(=N)N)C(=O)N[C@H](C(=O)N[C@@H](CCC(=O)O)C(=O)N[C@H](C(=O)NCC(=O)N[C@@H](CO)C(=O)NCC(=O)N[C@@H](CO)C(=O)N1CCC[C@H]1C(N)=O)[C@@H](C)O)[C@@H](C)O)[C@@H](C)O)[C@@H](C)O` [compound 68, [N-terminal(acetyl), des1, 4K(C20 diacid-gGlu), 30S, 31G]mimylin] (Ac-ASK([γGlu-C20 diacid])LSTAALGRLSAELHELATLPRTETGSGSP-NH2), the solubility at 18 h in data set [1] (bistrispropane buffer, pH 6.5) is at least 200 µM; in data set [1] (bistrispropane buffer, pH 7.5), at least 200 µM; in data set [1] (bistrispropane buffer, pH 6.0) it was at least 200 µM; in data set [1] (bistrispropane buffer, pH 7.0), at least 200 µM; in data set [1] (bistrispropane buffer, pH 8.0), at least 200 µM; in data set [1] (glycylglycine buffer, pH 3.0), at least 200 µM. Moreover, the solubility at 18 h is at least 200 µM in data set [1] (glycylglycine buffer, pH 4.0) and at least 200 µM in data set [1] (glycylglycine buffer, pH 5.0). The IC50 at rat calcitonin receptor was 0.01 nM; in data set [2], 0.05 nM.

The term solubility denotes the dissolved amount per volume that the medium holds. For orientation: IC50 means the concentration that inhibits the measured activity by half.

The values are drawn from patent US9593149B2, “Amylin and calcitonin receptor agonist” (Novo Nordisk A/S, priority 2014, dated 2017).
